Where a name gives a salt, the structure may show the parent alone.

As usually defined, the inhibition is the relative decrease from the control value, in per cent.

T1 sequence (P23975 whole entry): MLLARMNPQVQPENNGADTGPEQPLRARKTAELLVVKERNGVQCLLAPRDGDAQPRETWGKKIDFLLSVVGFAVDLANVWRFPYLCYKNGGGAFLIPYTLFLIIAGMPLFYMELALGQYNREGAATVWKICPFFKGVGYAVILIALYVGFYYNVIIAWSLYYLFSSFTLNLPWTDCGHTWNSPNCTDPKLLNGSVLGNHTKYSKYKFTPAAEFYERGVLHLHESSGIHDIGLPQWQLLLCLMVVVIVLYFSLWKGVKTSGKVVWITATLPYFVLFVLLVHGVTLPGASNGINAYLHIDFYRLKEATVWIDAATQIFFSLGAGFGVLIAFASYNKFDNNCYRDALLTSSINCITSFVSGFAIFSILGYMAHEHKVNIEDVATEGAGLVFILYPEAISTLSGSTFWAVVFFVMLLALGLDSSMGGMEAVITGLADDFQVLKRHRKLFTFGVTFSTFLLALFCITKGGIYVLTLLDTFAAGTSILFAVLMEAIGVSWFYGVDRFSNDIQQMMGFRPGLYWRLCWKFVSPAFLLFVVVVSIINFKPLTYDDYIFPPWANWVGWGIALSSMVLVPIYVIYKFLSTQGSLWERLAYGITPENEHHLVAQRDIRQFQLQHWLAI

The experiment has as its target T1, hNET (Homo sapiens, UniProt P23975).
T1 construct: expressed in transfected cells; host or cells: MDCK-Net6 (MDCK cells stably transfected with hNET)
Put plainly: Norepinephrine (NE) uptake assay in MDCK-Net6 cells. In kind it is cell-based. The following applies: 1 μM test compound; MDCK-Net6 cells stably transfected with human hNET; [3H]NE uptake. As to the method: Cells were plated at 300,000 T75 flask and cells were split twice weekly. […] Cells were plated at 250,000 cells/T75 flask and split twice weekly.
On day 1, cells were plated at 3,000 cells/well in growth medium and maintained in a cell incubator (37° C., 5% CO2). On day 2, growth medium was replaced with […] of assay buffer (25 mM HEPES; 120 mM NaCl; 5 mM KCl; 2.5 mM CaCl2; 1.2 mM MgSO4; 2 mg/ml glucose (pH 7.4, 37° C.)) containing 0.2 mg/ml ascorbic acid and […]. Plates containing cells with […] of assay buffer were equilibrated for 10 minutes at 37° C. prior to addition of compounds. A stock solution of desipramine was prepared in DMSO (10 mM) and delivered to triplicate wells containing cells for a final test concentration of 1 μM. Data from these wells were used to define non-specific NE uptake (minimum NE uptake). Test compounds were prepared in DMSO (10 mM) and diluted in assay buffer according to test range (1 to 10,000 nM). Twenty-five microliters of assay buffer (maximum NE uptake) or test compound were added directly to triplicate wells containing cells in 200 μl of assay buffer. The cells in assay buffer with test compounds were incubated for 20 minutes at 37° C. To initiate the NE uptake, [^3H]NE diluted in assay buffer (120 nM final assay concentration) was delivered in 25 μl aliquots to each well and the plates were incubated for 5 minutes (37° C.). The reaction was terminated by decanting the supernatant from the plate. The plates containing cells were washed twice with 200 μl assay buffer (37° C.) to remove free radioligand. The plates were then inverted, left to dry for 2 minutes, then reinverted and air-dried for an additional 10 minutes. The cells were lysed in 25 μl of 0.25 N NaOH solution (4° C.), placed on a shake table and vigorously shaken for 5 minutes. After cell lysis, 75 μl of scintillation cocktail was added to each well and the plates were sealed with film tape. The plates were returned to the shake table and vigorously shaken for a minimum of 10 minutes to ensure adequate partitioning of organic and aqueous solutions. The plates were counted in a Wallac Microbeta counter (PerkinElmer) to collect the raw cpm data.
For each experiment, a data stream of cpm values collected from the Wallac Microbeta counter was downloaded to a Microsoft Excel statistical application program. Calculations of EC50 values were made using the transformed-both-sides logistic dose response program written by Wyeth Biometrics Department.
`CCNC[C@@H](O)[C@H](c1ccc(Cl)cc1)N(C)c1ccccc1` (racemic) [Example 31, (1RS,2SR)-1-(4-chlorophenyl)-3-(ethylamino)-1-[methyl(phenyl)amino]propan-2-ol hydrochloride] yielded an inhibition at 1 µM of 88%.

Molecule `CNC[C@@H](O)[C@H](c1ccc(OC)cc1)N(C)c1ccc(Cl)cc1` (racemic) [Example 25, (1RS,2SR)-1-[(4-chlorophenyl)(methyl)amino]-1-(4-methoxyphenyl)-3-(methylamino)propan-2-ol hydrochloride] came in with an inhibition at 1 µM of 97%.

Turning to `COc1ccc([C@@H]([C@H](O)CN)N(C)c2ccc(Cl)cc2)cc1` (racemic) [Example 6, (1RS,2SR)-3-amino-1-[(4-chlorophenyl)(methyl)amino]-1-(4-methoxyphenyl)propan-2-ol hydrochloride], the inhibition at 1 µM amounted to 92%.

`Cc1ccc(N(C)[C@@H](c2ccccc2)[C@H](O)CN(C)C)cc1` (racemic) [Example 32, (1RS,2SR)-3-(dimethylamino)-1-[methyl (4-methylphenyl)amino]-1-phenylpropan-2-ol hydrochloride] returned an inhibition at 1 µM of 95%.

With `COc1cccc(N(C)[C@@H](c2ccccc2)[C@H](O)CN)c1` (racemic) [Example 4, (1RS,2SR)-3-amino-1-[(3-methoxyphenyl)(methyl)amino]-1-phenylpropan-2-ol hydrochloride], testing at 1 µM gave an inhibition of 86%.

On to `CNC[C@@H](O)[C@H](c1ccc(OC)cc1)N(C)c1ccc(OC)cc1` (racemic) [Example 26, (1RS,2SR)-1-(4-methoxyphenyl)-1-[(4-methoxyphenyl)(methyl)amino]-3-(methylamino)propan-2-ol hydrochloride], for which testing at 1 µM gave an inhibition of 75%.

`CCNC[C@@H](O)[C@H](c1ccc(OC)cc1)N(C)c1ccc(Cl)cc1` (racemic) [Example 29, (1RS,2SR)-1-[(4-chlorophenyl)(methyl)amino]-3-(ethylamino)-1-(4-methoxyphenyl)propan-2-ol hydrochloride] came in with an inhibition at 1 µM of 95%.

For the molecule `CN(c1ccccc1Cl)[C@@H](c1ccccc1)[C@H](O)CN` (racemic) [Example 3, (1RS,2SR)-3-amino-1-[(2-chlorophenyl)(methyl)amino]-1-phenylpropan-2-ol hydrochloride], testing at 1 µM gave an inhibition of 45%.

`CCNC[C@@H](O)[C@H](c1ccccc1)N(C)c1ccc(C)cc1` (racemic) [Example 28, (1RS,2SR)-3-(ethylamino)-1-[methyl(4-methylphenyl)amino]-1-phenylpropan-2-ol hydrochloride] yielded an inhibition at 1 µM of 71%.

`CCNC[C@@H](O)[C@H](c1cccc(Cl)c1)N(C)c1ccccc1` (racemic) [Example 30, (1RS,2SR)-1-(3-chlorophenyl)-3-(ethylamino)-1-[methyl(phenyl)amino]propan-2-ol hydrochloride]: at 1 µM the inhibition was 56%.

In the case of `Cc1cccc(N(C)[C@@H](c2ccccc2)[C@H](O)CN)c1` (racemic) [Example 2, (1RS,2SR)-3-amino-1-[methyl(3-methylphenyl)amino]-1-phenylpropan-2-ol hydrochloride], at 1 µM the inhibition was 92%.

In turn, `CNC[C@@H](O)[C@H](c1ccc(OC)cc1)N(C)c1cccc(F)c1` (racemic) [Example 24, (1RS,2SR)-1-[(3-fluorophenyl)(methyl)amino]-1-(4-methoxyphenyl)-3-(methylamino)propan-2-ol hydrochloride] gave an inhibition at 1 µM of 92%.

`CNC[C@@H](O)[C@H](c1cccc(F)c1)N(C)c1ccc(Cl)cc1` (racemic) [Example 23, (1RS,2SR)-1-[(4-chlorophenyl)(methyl)amino]-1-(3-fluorophenyl)-3-(methylamino)propan-2-ol hydrochloride]: at 1 µM the inhibition was 99%.

These data come from patent publication US7671238B2, “Arylamino-arylpropanolamine derivatives and methods of their use” (Wyeth LLC, priority 2006, dated 2010).
